# Reference: patent publication US20110059941A1, “2-PHENYL SUBSTITUTED IMIDAZOL [4,5B] PYRIDINE/PYRAZINE AND PURINE DERIVATIVES AS GLUCOKINASE MODULATORS” (priority 2005, published 2011)
# Target: T1, recombinant human pancreatic GLK (Homo sapiens, UniProt P35557)
# T1 sequence (P35557 1-465): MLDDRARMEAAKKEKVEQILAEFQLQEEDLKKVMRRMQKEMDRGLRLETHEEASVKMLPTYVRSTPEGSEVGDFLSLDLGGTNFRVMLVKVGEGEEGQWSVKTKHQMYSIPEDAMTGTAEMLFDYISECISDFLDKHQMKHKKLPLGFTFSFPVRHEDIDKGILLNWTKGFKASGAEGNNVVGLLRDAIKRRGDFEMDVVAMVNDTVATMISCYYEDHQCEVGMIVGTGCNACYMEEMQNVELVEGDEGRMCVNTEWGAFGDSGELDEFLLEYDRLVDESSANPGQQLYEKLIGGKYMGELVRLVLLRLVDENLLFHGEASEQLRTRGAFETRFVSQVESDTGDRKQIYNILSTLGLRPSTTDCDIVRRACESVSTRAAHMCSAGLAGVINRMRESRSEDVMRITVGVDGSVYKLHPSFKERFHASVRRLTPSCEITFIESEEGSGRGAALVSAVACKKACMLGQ
# Assay: biochemical
structure (smiles),measurement,value
"COC[C@H](C)Oc1cc(OCc2ccccc2)cc(-c2nc3cccnc3[nH]2)c1 [Example 1, 2-{3-(Benzyloxy)-5-[(1S)-2-methoxy-1-methylethoxy]phenyl}-3H-imidazo[4,5-b]pyridine]",EC50,600 nM
